# Publication PMC10802846 (Cell chemical biology, 2023)
# “Also recorded” adds a separate entry of the source. Where two headings read alike, the source gives them in different places. Residues, ends and D or L forms follow the SMILES beside them. *: point of attachment. Cbz = O=C(OCc1ccccc1)*
# What was measured:
# [1] = molecular target: HDAC3 (Homo sapiens, UniProt O15379+P40337); assay: HDAC3 degradation by Western blot in MDA-MB-231 cells; format: cell-based
# [2] = molecular target: T1, HDAC8 (Homo sapiens, UniProt Q9BY41); assay: HDAC8 degradation by Western blot in MDA-MB-231 cells; format: cell-based
# T1 sequence (Q9BY41 1-377): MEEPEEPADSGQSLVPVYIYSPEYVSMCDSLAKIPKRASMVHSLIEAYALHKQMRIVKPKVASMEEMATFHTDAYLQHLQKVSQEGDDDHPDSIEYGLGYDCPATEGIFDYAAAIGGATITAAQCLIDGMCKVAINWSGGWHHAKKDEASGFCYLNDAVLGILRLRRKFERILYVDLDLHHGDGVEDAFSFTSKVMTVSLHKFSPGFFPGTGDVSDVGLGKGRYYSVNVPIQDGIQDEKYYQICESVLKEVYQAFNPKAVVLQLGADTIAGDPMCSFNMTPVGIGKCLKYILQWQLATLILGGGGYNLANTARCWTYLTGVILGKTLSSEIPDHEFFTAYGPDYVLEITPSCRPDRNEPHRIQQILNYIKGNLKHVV
# [3] = test system: BC cell lines; assay: Colony formation assays, comparison across several BC cell lines; format: cell-based, human; conditions: alone or in combination
# [4] = test system: MDA-MB-231 cells; assay: RNA-seq differential gene expression; format: cell-based, human; conditions: for number of downregulated genes / number of upregulated genes: 24 h, fold-change≥|2|, p ≤ 0.01
# [5] = molecular target: T1, HDAC8; assay: HDAC activity assay; format: biochemical
# [6] = test system: MDA-MB-231; assay: Colony formation assay, MDA-MB-231; format: cell-based, human
# [7] = molecular target: T2, HDAC1 (Homo sapiens, UniProt Q13547); assay: HDAC activity assay; format: biochemical
# [8] = molecular target: T2, HDAC1; assay: HDAC1 protein level by Western blot in MCF7 and MDA-MB-231 cells; format: cell-based
# [9] = molecular target: HDAC2 (Homo sapiens, UniProt Q92769); assay: HDAC2 protein level by Western blot in MCF7 and MDA-MB-231 cells; format: cell-based
# [10] = molecular target: HDAC1 and the VHL complex (Homo sapiens, UniProt Q13547); assay: AlphaLISA ternary complex formation, HDAC1; format: binding; conditions: broad range of YX968 concentrations
# [11] = test system: acetylated core histones (H3K27ac, H2BK5ac, and H4K8ac); assay: Histone acetylation by Western blot; format: cell-based, human
# [12] = test system: acetylated SMC3; assay: Acetylated SMC3 by Western blot in MDA-MB-231 cells; format: cell-based, human; conditions: YX968 16 nM, 14 h
# [13] = test system: cell cycle progression; assay: Cell cycle profiling; format: cell-based; conditions: 24 h
# [14] = test system: MCF7; assay: Colony formation assay, MCF7; format: cell-based, human
# [15] = test system: T47D; assay: Colony formation assay, T47D; format: cell-based, human
# [16] = test system: BT549; assay: Colony formation assay, BT549; format: cell-based, human
# [17] = test system: MDA-MB-468; assay: Colony formation assay, MDA-MB-468; format: cell-based, human
# [18] = test system: HCC1806; assay: Colony formation assay, HCC1806; format: cell-based, human
# [19] = test system: H1299; assay: Colony formation assay, H1299; format: cell-based, human
# [20] = test system: caspase 3 (CASP3); assay: CASP3 cleavage; format: cell-based, human; conditions: MDA-MB-231, 16 h
# [21] = test system: p21; assay: p21 induction by Western blot in MDA-MB-231 cells; format: cell-based, human; conditions: MDA-MB-231, 16 h
# [22] = test system: HDAC1/3/8; assay: HDAC1/3/8 inhibitory activity in vitro, statements across the three isozymes; format: biochemical; conditions: for HDAC1/3/8 inhibitory potency and selectivity: warhead analogues
# [23] = pretreatment with probe, then YX968, MDA-MB-231
# [24] = q-value ≤0.05 and fold-change ≥|2.0|
# Chain of HDAC3 (O15379 whole entry): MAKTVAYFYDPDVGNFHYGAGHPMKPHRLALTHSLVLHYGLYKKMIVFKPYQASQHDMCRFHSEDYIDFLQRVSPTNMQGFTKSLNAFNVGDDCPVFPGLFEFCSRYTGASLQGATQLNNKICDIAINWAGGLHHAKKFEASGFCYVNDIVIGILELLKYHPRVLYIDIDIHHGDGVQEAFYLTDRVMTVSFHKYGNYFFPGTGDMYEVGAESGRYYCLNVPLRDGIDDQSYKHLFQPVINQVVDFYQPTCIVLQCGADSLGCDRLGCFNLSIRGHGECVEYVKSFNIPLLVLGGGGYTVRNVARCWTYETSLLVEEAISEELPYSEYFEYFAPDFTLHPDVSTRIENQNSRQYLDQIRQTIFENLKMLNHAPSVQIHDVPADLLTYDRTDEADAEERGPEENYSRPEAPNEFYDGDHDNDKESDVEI
# Chain of HDAC3 (O75376 whole entry partner): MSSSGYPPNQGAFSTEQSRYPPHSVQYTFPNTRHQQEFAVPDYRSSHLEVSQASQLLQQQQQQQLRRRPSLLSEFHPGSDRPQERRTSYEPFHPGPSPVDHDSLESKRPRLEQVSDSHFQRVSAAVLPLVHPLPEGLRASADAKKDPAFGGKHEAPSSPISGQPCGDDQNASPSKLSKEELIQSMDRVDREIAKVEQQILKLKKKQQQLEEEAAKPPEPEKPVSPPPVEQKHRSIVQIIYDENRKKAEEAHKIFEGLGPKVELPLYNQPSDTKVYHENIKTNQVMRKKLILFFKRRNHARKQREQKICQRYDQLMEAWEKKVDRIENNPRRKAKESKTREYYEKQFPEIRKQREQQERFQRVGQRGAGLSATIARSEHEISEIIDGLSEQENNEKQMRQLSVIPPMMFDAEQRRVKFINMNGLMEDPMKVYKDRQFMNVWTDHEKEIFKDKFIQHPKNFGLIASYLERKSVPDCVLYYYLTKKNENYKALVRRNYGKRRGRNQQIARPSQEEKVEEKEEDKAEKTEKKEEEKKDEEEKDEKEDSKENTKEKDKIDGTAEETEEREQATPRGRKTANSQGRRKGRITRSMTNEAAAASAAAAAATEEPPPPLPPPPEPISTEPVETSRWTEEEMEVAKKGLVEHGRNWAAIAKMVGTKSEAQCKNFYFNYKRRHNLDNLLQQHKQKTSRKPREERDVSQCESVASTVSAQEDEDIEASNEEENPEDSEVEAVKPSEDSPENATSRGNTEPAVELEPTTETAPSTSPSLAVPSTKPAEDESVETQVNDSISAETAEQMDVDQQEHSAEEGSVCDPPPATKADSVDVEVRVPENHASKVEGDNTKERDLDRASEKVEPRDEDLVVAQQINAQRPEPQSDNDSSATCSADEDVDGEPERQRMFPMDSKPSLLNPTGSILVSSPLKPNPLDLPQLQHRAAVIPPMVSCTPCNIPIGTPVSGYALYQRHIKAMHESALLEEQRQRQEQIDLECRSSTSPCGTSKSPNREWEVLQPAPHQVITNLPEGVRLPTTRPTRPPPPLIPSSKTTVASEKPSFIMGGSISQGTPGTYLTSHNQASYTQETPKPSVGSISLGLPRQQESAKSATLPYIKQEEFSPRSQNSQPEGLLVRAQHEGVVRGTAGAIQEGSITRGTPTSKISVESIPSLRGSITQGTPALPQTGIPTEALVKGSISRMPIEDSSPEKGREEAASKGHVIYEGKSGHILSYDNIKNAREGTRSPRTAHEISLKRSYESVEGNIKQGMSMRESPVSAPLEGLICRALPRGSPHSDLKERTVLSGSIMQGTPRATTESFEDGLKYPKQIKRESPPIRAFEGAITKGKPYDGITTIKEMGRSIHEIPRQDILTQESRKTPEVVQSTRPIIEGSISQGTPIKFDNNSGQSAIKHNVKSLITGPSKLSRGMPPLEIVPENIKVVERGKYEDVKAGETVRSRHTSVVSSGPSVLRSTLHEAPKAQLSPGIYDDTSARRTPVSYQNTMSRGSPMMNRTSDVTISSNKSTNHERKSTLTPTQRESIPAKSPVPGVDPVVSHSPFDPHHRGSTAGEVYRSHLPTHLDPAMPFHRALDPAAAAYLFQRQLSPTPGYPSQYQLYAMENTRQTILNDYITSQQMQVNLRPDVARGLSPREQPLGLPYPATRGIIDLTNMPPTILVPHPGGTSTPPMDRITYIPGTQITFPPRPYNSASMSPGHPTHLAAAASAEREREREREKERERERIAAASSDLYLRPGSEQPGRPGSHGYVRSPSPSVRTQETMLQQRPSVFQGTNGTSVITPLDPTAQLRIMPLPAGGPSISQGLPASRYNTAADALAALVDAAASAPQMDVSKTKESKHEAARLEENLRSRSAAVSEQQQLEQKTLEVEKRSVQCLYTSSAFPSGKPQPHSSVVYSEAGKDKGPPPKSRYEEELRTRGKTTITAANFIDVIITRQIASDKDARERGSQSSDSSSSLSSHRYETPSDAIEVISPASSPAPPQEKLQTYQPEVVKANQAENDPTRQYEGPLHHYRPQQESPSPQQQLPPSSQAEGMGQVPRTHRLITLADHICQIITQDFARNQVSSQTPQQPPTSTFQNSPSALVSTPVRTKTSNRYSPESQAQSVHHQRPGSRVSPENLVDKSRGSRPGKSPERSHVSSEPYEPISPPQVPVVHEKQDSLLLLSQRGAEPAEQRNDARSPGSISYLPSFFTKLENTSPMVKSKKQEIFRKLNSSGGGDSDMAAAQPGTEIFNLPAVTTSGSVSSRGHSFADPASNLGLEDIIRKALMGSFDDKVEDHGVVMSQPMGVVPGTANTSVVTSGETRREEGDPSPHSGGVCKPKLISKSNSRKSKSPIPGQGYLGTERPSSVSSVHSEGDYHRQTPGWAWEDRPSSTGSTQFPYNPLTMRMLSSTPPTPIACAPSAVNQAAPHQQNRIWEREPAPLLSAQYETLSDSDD
# Chain of HDAC3 (P40337 whole entry): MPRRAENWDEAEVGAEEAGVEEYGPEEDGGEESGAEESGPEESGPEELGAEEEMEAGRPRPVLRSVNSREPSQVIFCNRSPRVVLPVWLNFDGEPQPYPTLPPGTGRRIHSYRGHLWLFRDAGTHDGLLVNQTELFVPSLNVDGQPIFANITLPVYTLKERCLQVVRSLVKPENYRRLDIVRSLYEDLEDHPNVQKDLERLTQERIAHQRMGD
# Chain of HDAC3 (Q15370 whole entry partner): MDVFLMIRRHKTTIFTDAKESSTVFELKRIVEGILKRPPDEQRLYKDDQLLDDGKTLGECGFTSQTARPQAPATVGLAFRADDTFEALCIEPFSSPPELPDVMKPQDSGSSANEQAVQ
# Chain of HDAC3 (Q15369 whole entry partner): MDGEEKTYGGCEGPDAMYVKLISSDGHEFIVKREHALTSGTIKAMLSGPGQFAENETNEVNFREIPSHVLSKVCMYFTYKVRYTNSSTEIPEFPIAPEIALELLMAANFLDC
# T2 sequence (Q13547 whole entry): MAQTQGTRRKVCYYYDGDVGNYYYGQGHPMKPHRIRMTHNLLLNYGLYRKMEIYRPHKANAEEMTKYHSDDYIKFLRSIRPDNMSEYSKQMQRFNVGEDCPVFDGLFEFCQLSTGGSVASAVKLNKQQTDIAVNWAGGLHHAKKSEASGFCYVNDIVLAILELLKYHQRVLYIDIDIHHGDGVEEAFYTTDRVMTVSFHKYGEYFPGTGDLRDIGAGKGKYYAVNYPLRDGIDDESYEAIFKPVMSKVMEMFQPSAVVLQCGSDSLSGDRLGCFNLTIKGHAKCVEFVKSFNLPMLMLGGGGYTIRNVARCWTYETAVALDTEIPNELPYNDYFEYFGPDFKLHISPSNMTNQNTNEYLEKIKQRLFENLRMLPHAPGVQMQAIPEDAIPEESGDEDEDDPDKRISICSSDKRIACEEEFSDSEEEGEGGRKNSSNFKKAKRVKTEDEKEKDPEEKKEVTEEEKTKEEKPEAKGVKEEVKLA
# Chain of HDAC2 (Q92769 whole entry): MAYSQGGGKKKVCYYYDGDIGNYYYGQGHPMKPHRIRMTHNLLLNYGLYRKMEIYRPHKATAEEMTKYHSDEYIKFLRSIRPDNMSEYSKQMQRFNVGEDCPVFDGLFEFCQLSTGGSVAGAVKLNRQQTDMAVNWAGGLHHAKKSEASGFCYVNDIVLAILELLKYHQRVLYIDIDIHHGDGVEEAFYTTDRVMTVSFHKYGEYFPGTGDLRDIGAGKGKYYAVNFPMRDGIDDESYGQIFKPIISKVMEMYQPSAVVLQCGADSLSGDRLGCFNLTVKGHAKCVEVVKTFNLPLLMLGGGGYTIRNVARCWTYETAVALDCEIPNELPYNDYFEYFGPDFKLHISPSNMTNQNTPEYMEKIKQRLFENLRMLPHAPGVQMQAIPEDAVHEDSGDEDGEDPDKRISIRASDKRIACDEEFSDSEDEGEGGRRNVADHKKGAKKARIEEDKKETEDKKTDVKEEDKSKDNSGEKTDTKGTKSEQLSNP
# Chain of HDAC1 and the VHL complex (Q13547 whole entry, one chain of several): as the sequence (Q13547 whole entry) above
structure (smiles),measurement,setting,value
Cc1cc2c(C(N)=O)cccc2n1-c1nc2c(c(NCc3ccccc3)n1)COCC2 [CB-5803],effect of pretreatment on YX968-mediated HDAC3 degradation,[1],only slightly rescued
same,effect of pretreatment on YX968-mediated HDAC8 degradation,[2],effectively blocked
CC(C)C[C@@H](C=O)NC(=O)[C@H](CC(C)C)NC(=O)[C@H](CC(C)C)NC(=O)OCc1ccccc1 [MG132] (Cbz-Leu-Leu-Leu-aldehyde),effect of pretreatment on YX968-mediated HDAC3 degradation,[1]; [23],blocked
same,effect of pretreatment on YX968-mediated HDAC3 degradation,[1]; probe at 3 μM,only moderately reversed
same,effect of pretreatment on YX968-mediated HDAC3 degradation,[1]; probe at 10 μM,more effectively rescued
same,effect of pretreatment on YX968-mediated HDAC8 degradation,[2]; [23],blocked
same,effect of pretreatment on YX968-mediated HDAC8 degradation,[2]; probe at 3 μM,effectively blocked
NS(=O)(=O)OC[C@@H]1C[C@@H](n2ccc3c(N[C@H]4CCc5ccccc54)ncnc32)C[C@@H]1O [MLN4924],effect of pretreatment on YX968-mediated HDAC3 degradation,[1]; [23],highly effective in blocking
same,effect of pretreatment on YX968-mediated HDAC8 degradation,[2]; [23],highly effective in blocking
COc1ccc(Cn2ccc3ccc(C(=O)NO)cc32)cc1 [PCI 34051],potency to suppress cell growth vs YX968,[3],less potent than YX968
Nc1cc(F)ccc1NC(=O)/C=C/c1cnn(C/C=C/c2ccccc2)c1 [RGFP-966],potency to suppress cell growth vs YX968,[3],less potent than YX968
CCCCNNC(=O)c1ccc(Br)cc1 [UF010],number of downregulated genes,[4]; UF010 treatment,761
same,number of upregulated genes,[4]; UF010 treatment,"2,678"
same,number of downregulated DEGs,[4]; [24],572
same,number of upregulated DEGs,[4]; [24],"1,792"
CC(=O)N[C@H](C(=O)N1C[C@H](O)C[C@H]1C(=O)NCc1ccc(-c2scnc2C)cc1)C(C)(C)C [VH032],effect of pretreatment on YX968-mediated HDAC8 degradation,[2]; [23],effectively competed
"CCCNNC(=O)c1ccc(-c2ccc(NC(=O)CCCCCCC(=O)N[C@H](C(=O)N3C[C@H](O)C[C@H]3C(=O)N[C@@H](C)c3ccc(-c4scnc4C)cc3)C(C)(C)C)cc2)cc1 [XZ9002, reference compound]",IC50,[5],1090 nM
same,inhibition of clonogenic growth,"[6]; MDA-MB-231, 3 μM",moderate inhibition
"CCCNNC(=O)c1ccc(N2CCN(CCCCCCCC(=O)N[C@H](C(=O)N3C[C@H](O)C[C@H]3C(=O)N[C@@H](C)c3ccc(-c4scnc4C)cc3)C(C)(C)C)CC2)cc1 [YX968, (2S,4R)-1-((S)-3,3-dimethyl-2-(8-(4-(4-(2-propylhydrazine-1-carbonyl)phenyl)piperazin-1-yl)octanamido)butanoyl)-4-hydroxy-N-((S)-1-(4-(4-methylthiazol-5-yl)phenyl)ethyl)pyrrolidine-2-carboxamide]",IC50,[7],591 nM
same,effect on HDAC1 protein level,[8],did not affect; also recorded: not degraded
same,effect on HDAC2 protein level,[9],did not affect; also recorded: not degraded
same,ternary complex formation with HDAC1,[10],not able to induce a complex
same,number of downregulated genes,[4]; 50 nM,41
same,number of upregulated genes,[4]; 50 nM,53
same,significant DEGs,[4]; [24],no significant DEGs
same,levels of acetylated core histones,[11]; MCF-7 and MDA-MB-231 cells,dose-dependently increased
same,concentration at which H3K27ac was weakly detectable,"[11]; MDA-MB-231, 16 h",63 nM
same,levels of acetylated SMC3,[12],increased
same,effect on cell cycle,[13]; 0.1 μM,negligibly perturbed; also recorded: did not alter cell cycle
same,effect on cell cycle,[13]; 1 μM,strong G1 arrest; also recorded: markedly induced G1 arrest
same,concentration at which clonogenic growth was effectively inhibited,[14],125 nM
same,concentration at which clonogenic growth was effectively inhibited,[15],125 nM
same,concentration at which clonogenic growth was effectively inhibited,[16],125 nM
same,concentration at which clonogenic growth was effectively inhibited,[17],125 nM
same,concentration at which clonogenic growth was effectively inhibited,[18],125 nM
same,clonogenic growth suppression,[6]; MDA-MB-231,effectively suppressed at a sub-μM concentration
same,clonogenic growth sensitivity,[19],quite resistant
same,CASP3 cleavage (activation),[20],in a dose-dependent manner
same,concentration at which weak CASP3 activation was notable,[20],63 nM
same,concentration at which weak p21 induction was seen,[21],250 nM
"CC[C@H](NC(=O)[C@H](C)NC)C(=O)N1C[C@@H](O)C[C@H]1Cc1c(-c2[nH]c3cc(F)ccc3c2C[C@@H]2C[C@H](O)CN2C(=O)[C@H](CC)NC(=O)[C@H](C)NC)[nH]c2cc(F)ccc12 [birinapant, reference compound]",CASP3 cleavage (activation),[20],activated CASP3
CC(C)C[C@H](NC(=O)[C@H](Cc1ccccc1)NC(=O)c1cnccn1)B(O)O [bortezomib],effect of pretreatment on YX968-mediated HDAC3 degradation,[1]; [23],could also reverse
"CCCNNC(=O)c1ccc(N2CCN(C(C)=O)CC2)cc1 [compound 14, 4-(4-acetylpiperazin-1-yl)-N′-propylbenzohydrazide]",fold less potent than 15 for the three HDAC isozymes,"[22]; HDAC1, HDAC3, HDAC8",3- to 7 fold
same,HDAC1/3/8 inhibitory potency and selectivity,[22],preferentially inhibited HDAC3
"CCCNNC(=O)c1ccc(N2CCN(C)CC2)cc1 [compound 15, 4-(4-methylpiperazin-1-yl)-N′-propylbenzohydrazide]",HDAC1/3/8 inhibitory potency and selectivity,[22],highest potency among all the new analogues
"CCCNNC(=O)c1ccc(CN2CCN(C(C)=O)CC2)cc1 [compound 16, 4-((4-acetylpiperazin-1-yl)methyl)-N′-propylbenzohydrazide]",HDAC1/3/8 inhibitory potency and selectivity,[22],dramatic decline of selectivity and potency
